Data published in US6486166B1, “Suppression of cyclin kinase 2 activity for prevention and treatment of DNA viral infections” (Board of Regents, The University of Texas, priority 1997, dated 2002).
Entries after “also recorded” stand apart in the source; their conditions may differ. One block for each molecule: values may come before it.

Key:
[1] = system: HCMV-infected subconfluent LU cells; experiment: cell cycle distribution (DNA content by flow cytometry) after HCMV infection of subconfluent LU cells with PAA; type: cell-based, human; details: for Percent Cells in phase G0/G1 / Percent Cells in phase G2/M / Percent Cells in phase S: HCMV 5 PFU/cell + PAA 100 μg/ml
[2] = system: human lung fibroblasts; details: 100 μg/ml (0.75 mM); cited from earlier work
[3] = system: non-infected LU cells; details: human, 15 μM
[4] = tolerated dose in animals; type: in vivo; details: printed 'tolerated by rate'
From the text: The preferred dosage of inhibitor of cyclin E/Cdk2 activity in a parenteral administration will vary, depending upon the extent of the virus infection, the severity of the symptoms associated with the infection and patient age, weight and medical history. The number of administrations of the parenteral composition will also vary according to the response of the individual patient to the treatment. In one exemplary application. the dosage of inhibitor of cyclin E/Cdk2 activity would vary with the type of disease and the route of administration. Further studies with animal models of infection will completely define projected doses. […] Weaker Cdk2 inhibitors will be needed at higher concentrations, and stronger, at lower.

[5] = system: non-infected LU cells; experiment: effects on non-infected LU cells (morphology, flow cytometry, BrdU incorporation); details: 15 μM for 96 hr
[6] = system: HCMV; experiment: HCMV DNA abundance in infected LU cells by slot blot hybridization; type: cell-based, Human cytomegalovirus strain AD169; details: density-arrested LU cells, 72 hr post-infection
[7] = system: HCMV-infected LU cells; experiment: hematoxylin and eosin staining of HCMV-infected LU cells; details: 15 μM; 96 hr after infection
[8] = system: HCMV; experiment: infectious HCMV yield by plaque assay; type: cell-based, Human cytomegalovirus strain AD169

SMILES: O=C(O)CP(=O)(O)O [PAA, phosphonoacetic acid]
- Percent Cells in phase G0/G1 ([1]; 0 hours after treatment): 93.3 (1.2) percent
- Percent Cells in phase G2/M ([1]; 0 hours after treatment): 5.1 (1.0) percent
- Percent Cells in phase S ([1]; 0 hours after treatment): 1.6 (0.2) percent
- Percent Cells in phase G0/G1 ([1]; 24 hours after treatment): 97.2 (0.4) percent
- Percent Cells in phase G2/M ([1]; 24 hours after treatment): 1.9 (0.3) percent
- Percent Cells in phase S ([1]; 24 hours after treatment): 0.9 (0.1) percent
- Percent Cells in phase G0/G1 ([1]; 48 hours after treatment): 97.1 (0.8) percent
- Percent Cells in phase G2/M ([1]; 48 hours after treatment): 1.3 (0.4) percent
- Percent Cells in phase S ([1]; 48 hours after treatment): 1.5 (0.4) percent
- Percent Cells in phase G0/G1 ([1]; 72 hours after treatment): 97.2 (0.3) percent
- Percent Cells in phase G2/M ([1]; 72 hours after treatment): 0.9 (0.1) percent
- Percent Cells in phase S ([1]; 72 hours after treatment): 1.9 (0.3) percent
- increase in DNA content after HCMV infection ([1]; subconfluent LU cells infected in the presence of PAA): no detectable increase in DNA content
- effect on viral DNA replication [2]: blocks viral DNA replication

- cells able to incorporate bromodeoxyuridine (BrdU) after removal of the inhibitor [3]: more than 70%
SMILES: Cn1cnc2c(NCc3ccccc3)nc(NCCO)nc21 [olomoucine]

SMILES: CC[C@H](CO)Nc1nc(NCc2ccccc2)c2ncn(C(C)C)c2n1 [roscovitine]
- tolerated dose [4]: 3 µg/kg
- morphological changes of non-infected LU cells [5]: no morphological changes; also recorded: did not present with any obvious morphological changes
- cell cycle state of non-infected cells ([5]; flow cytometry): arrested in G0/G1 or G2/M phase
- HCMV DNA abundance reduced ([6]; 1 μM): ~50%
- viral DNA abundance reduced ([6]; 10 μM): > 90%
- morphology of HCMV-infected cells [7]: clearly dying or dead
- infectious HCMV yields reduced ([8]; 2.5 μM, 96 hr post-infection): > 90%
- inhibition at 10 µM ([8]; Human betaherpesvirus 5, 96 h, read-out: inhibition of infectious HCMV yields): > 99.9%
